Data published in US7118895B2, “Process for producing aglycon by using diglycosidase and flavor-improved food containing the aglycon and converting agent to be used in the process” (Amano Enzyme Inc., priority 2000, dated 2006).

Tested on: Crude diglycosidase
Assay: Examination of substrate concentration in the conversion into isoflavone aglycons by diglycosidase using soybean materials
Assay type: biochemical, Penicillium multicolor IAM7153
Method in brief: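 Reaction at 55° C, shaken, pH 4.0 (20 mM acetate), using crude diglycosidase from a 1.88 AU/mL enzyme solution on soy flour, soymilk, defatted soybean or soy protein concentrate at 2, 5, 10, 20 or 30% (w/v). Isoflavone aglycons quantified by HPLC of ethanol extracts at 0, 1, 3, 6 h.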

Decomposition efficiency of genistin family in defatted soybean (substrate concentration 2%, heat treatment of enzyme no, reaction time 0 h): 15.1 | Decomposition efficiency of genistin family in defatted soybean (substrate concentration 2%, heat treatment of enzyme no, reaction time 1 h): 68.6 | Decomposition efficiency of genistin family in defatted soybean (substrate concentration 2%, heat treatment of enzyme no, reaction time 3 h): 83.0 | Decomposition efficiency of genistin family in defatted soybean (substrate concentration 2%, heat treatment of enzyme no, reaction time 6 h): 88.6 | Decomposition efficiency of genistin family in defatted soybean (substrate concentration 2%, heat treatment of enzyme yes, reaction time 6 h): 18.0 | Decomposition efficiency of genistin family in defatted soybean (substrate concentration 5%, heat treatment of enzyme no, reaction time 0 h): 14.2 | Decomposition efficiency of genistin family in defatted soybean (substrate concentration 5%, heat treatment of enzyme no, reaction time 1 h): 61.2 | Decomposition efficiency of genistin family in defatted soybean (substrate concentration 5%, heat treatment of enzyme no, reaction time 3 h): 69.9 | Decomposition efficiency of genistin family in defatted soybean (substrate concentration 5%, heat treatment of enzyme no, reaction time 6 h): 80.7 | Decomposition efficiency of genistin family in defatted soybean (substrate concentration 5%, heat treatment of enzyme yes, reaction time 6 h): 15.4 | Decomposition efficiency of genistin family in defatted soybean (substrate concentration 10%, heat treatment of enzyme no, reaction time 0 h): 14.1 | Decomposition efficiency of genistin family in defatted soybean (substrate concentration 10%, heat treatment of enzyme no, reaction time 1 h): 57.2 | Decomposition efficiency of genistin family in defatted soybean (substrate concentration 10%, heat treatment of enzyme no, reaction time 3 h): 64.0 | Decomposition efficiency of genistin family in defatted soybean (substrate concentration 10%, heat treatment of enzyme no, reaction time 6 h): 70.3 | Decomposition efficiency of genistin family in defatted soybean (substrate concentration 10%, heat treatment of enzyme yes, reaction time 6 h): 14.5
Structure (SMILES): O=c1c(-c2ccc(O)cc2)coc2cc(O)cc(O)c12 [genistein]
